According to patent US12479928B2, “Anti-cancer peptide” (Minerva Biotechnologies Corporation, priority 2014, dated 2025):
“Also recorded” adds a separate entry of the source.

Legend:
[1] = molecular target: T1, binding of human NME1 to synthetic MUC1* peptide (Homo sapiens, UniProt P15941); assay: ELISA: inhibition of NME1 binding to immobilized MUC1* peptide; conditions: free peptides
T1 sequence (P15941 1110-1154 limits assumed): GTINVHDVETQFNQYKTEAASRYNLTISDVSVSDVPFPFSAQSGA
Source text: (§1) NME7 peptides were selected as immunizing agents for antibody production. NME7 peptides A1, A2, B1, B2 and B3 (FIG. 19) were chosen using a process of sequence alignment among human NME1, human NME7 and several bacterial NMEs that were homologous to human NME1 or human NME7. Five regions that had high sequence homology among all were identified. However, to prevent selecting peptides that would give rise to antibodies that would inhibit human NME1 as well as human NME7, we chose NME7 sequences that were adjacent to the homologous regions wherein those peptides had sequences that were different from human NME1. We did ELISA assays to see if the peptides on their own could bind to a synthetic MUC1* peptide on the surface and inhibit the binding of human NME7 or human NME1 to the immobilized peptide (FIG. 27).

[2] = molecular target: T2, binding of human NME7 to synthetic MUC1* peptide (Homo sapiens, UniProt P15941); assay: ELISA: inhibition of NME7 binding to immobilized MUC1* peptide; conditions: free peptides
T2 construct: made in house; host or cells: E. coli
T2 sequence (P15941 1110-1154 limits assumed): T1 sequence (P15941 1110-1154 limits assumed)
Source text: Those antibodies that inhibit cancer growth or transition to a more metastatic state are selected for use as anti-cancer therapeutics and may be administered to a patient for the treatment or prevention of cancers. Selected antibodies may be further optimized for example by engineering or making human chimera antibodies or fully human antibodies. […] We then generated antibodies using these peptides and then tested both the resultant antibodies as well as the immunizing peptides for their ability to: a) inhibit cancerous growth; and b) inhibit the induced transition from cancer cells to metastatic cancer cells. NME7 peptides were selected as immunizing agents for antibody production and as inhibitory agents themselves (FIG. 19 and Example 11). Peptides A1 (SEQ ID NO:141), A2 (SEQ ID NO:142), B1 (SEQ ID NO:143), B2 (SEQ ID NO:144) and B3 (SEQ ID NO:145), wherein A refers to the domain from which the peptide is derived, i.e. the NDPK A domain and the B denotes that the peptide is derived from the NDPK B domain (FIG. 15). Each peptide was used as an immunogen and injected into 2 rabbits each for production of polyclonal antibodies. The antibodies that were harvested from the blood of the immunized rabbits were purified over a column derivatized with the immunizing peptide. The purified antibodies were then tested for their ability to bind to human NME7. All of the resultant antibodies bound to human NME7 but not human NME1 as desired (FIG. 26A-B, Example 12). […] The antibodies were also tested for their ability to inhibit the binding of NME7 to a MUC1* extracellular domain peptide.
as §1

T47D breast cancer cells [3] = assay: Cancer cell growth inhibition by anti-NME7 specific antibodies and immunizing peptides (Example 13); format: cell-based, human; conditions: added separately; RPMI with serum
Procedure: Rabbits were immunized with NME7 peptides A1, A2, B1, B2, and B3 and antibodies were generated, collected and purified over a column to which the immunizing peptide had been conjugated. T47D breast cancer cells were plated and cultured according to ATCC protocols in RPMI media supplemented with serum. Immunizing peptides A1, A2, B1, B2, and B3, and the PSMGFR extracellular domain peptide of MUC1*, “FLR” here, were also added separately to growing T47D breast cancer cells. Taxol and the E6 anti-MUC1* Fab were added as controls. […] Note the comparison to inhibition using Taxol, which is a chemotherapy agent that kills healthy and cancer cells alike. Also, for comparison, a polyclonal antibody generated using a large stretch of NME7 from amino acid 100 to 376 is shown.
In a similar experiment, combinations of the antibodies generated from immunization with peptides A1, A2, B1, B2, and B3 as well as the peptides themselves were added to growing cancer cells at the concentrations indicated. […] In these two experiments, the cells were MUC1* positive breast cancer cells.

T47D breast cancer cells [4] = assay: Inhibition of NME7-AB or 2i induced transition of cancer cells to metastatic cancer cells (floaters, RT-PCR); format: cell-based, human; conditions: for expression of metastasis marker CXCR4 (RT-PCR) / floater cells (change from adherent cells to floaters): cells grown in NME7-AB or 2i; for floater cells (change from adherent cells to floaters): visual observation; for inhibition of transition to a more metastatic state (RT-PCR CXCR4, CHD1, SOX2): peptides alone, transition induced by 2i inhibitors
Procedure: In one example, NME7-AB specific antibodies, generated by immunization with NME7-derived peptides A1, A2, B1, B2 and B3, as well as the immunizing peptides themselves, were added into the media along with either NME7-AB or 2i to determine if they inhibited the transformation of regular cancer cells to metastatic cancer stem cells. Antibodies and peptides were separately added along with the agent that causes metastatic transformation; in this case NME7-AB or the 2i inhibitors PD0325901 and CHIR99021. NME7-AB and 2i were separately used to induce the cancer cells to be transformed to a more aggressive metastatic state. 2i was used so that it could not be argued that the antibodies that were added to the media simply sopped up all of the NME7-AB so that the causative agent effectively was not there (Example 14).
Visual observation was independently recorded by two scientists as the experiment progressed (FIG. 30). […] The amount of mRNA, which indicates cell viability and growth, was measured. […] RT-PCR was used to measure expression levels of metastatic markers, including CXCR4.
In another experiment, the free peptides A1, A2, B1, B2 and B3 were added to cancer cells in culture that were undergoing transition to a more metastatic state by culturing in either NME7-AB or 2i.
In the first of these experiments, the antibodies generated by immunization with A1, A2, B1, B2 and B3 were tested for their ability to inhibit the metastatic transition induced by culture of T47D breast cancer cells in NME7-AB or in 2i inhibitors.
RT-PCR was used to measure expression levels of metastatic markers, including CXCR4. […] (See FIG. 31). […] Peptide B3 was especially effective as was antibody #61 that it generated. […] The amount of mRNA, which indicates cell viability and growth, was measured.

[5] = test system: Human stem cells (iPS cat #SC101a-1); assay: Human stem cell growth and pluripotency in NME7-AB or NM23-H1 dimers; format: cell-based; conditions: 8 nM in Minimal Stem Cell Media
Procedure: For testing recombinant NME7-AB for ability to maintain pluripotency and inhibit differentiation, a soluble variant of NME7, NME7-AB, was generated and purified. Human stem cells (iPS cat #SC101a-1, System Biosciences) were grown per the manufacturer's directions in 4 ng/ml bFGF over a layer of mouse fibroblast feeder cells for four passages. These source stem cells were then plated into 6-well cell culture plates (Vita™, Thermo Fisher) that had been coated with 12.5 ug/well of a monoclonal anti-MUC1* antibody, MN-C3. Cells were plated at a density of 300,000 cells per well. The base media was Minimal Stem Cell Media consisting of: 400 ml DME/F12/GlutaMAX I (Invitrogen #10565-018), 100 ml Knockout Serum Replacement (KO-SR, Invitrogen #10828-028), 5 ml 100×MEM Non-essential Amino Acid Solution (Invitrogen #11140-050) and 0.9 ml (0.1 mM) β-mercaptoethanol (55 mM stock, Invitrogen #21985-023). The base media can be any media. In a preferred embodiment, the base media is free of other growth factors and cytokines. To the base media was added either 8 nM of NME7-AB or 8 nM NM23-H1 refolded and purified as stable dimers. Media was changed every 48 hours and due to accelerated growth, had to be harvested and passaged at Day 3 post-plating.
Cell counts at the first harvest verified that culture in NME7 produced 1.4-times more cells than culture in NM23-H1 dimers.

Row | inhibition of binding of NME1 to immobilized MUC1* peptide [1] | inhibition of binding of NME7 to immobilized MUC1* peptide [2] | Substance | inhibition of cancer cell growth (T47D breast cancer cells [3]) | expression of metastasis marker CXCR4 (RT-PCR) (T47D breast cancer cells [4]) | floater cells (change from adherent cells to floaters) (T47D breast cancer cells [4]) | inhibition of transition to a more metastatic state (RT-PCR CXCR4, CHD1, SOX2) (T47D breast cancer cells [4]) | pluripotent stem cell growth / differentiation [5]
1 | inhibited the binding | inhibited the binding | SGVARTDASES (peptide A2) | potently inhibited the growth | inhibited the increase in expression | inhibited the morphological change | potently inhibit | –
2 | – | – | NM23-H1 (NME1) dimers: NM23-H1 refolded and purified as stable dimers | – | – | – | – | no differentiation even when 100% confluent
3 | inhibited the binding | inhibited the binding | AIFGKTKIQNAVHCTDLPEDGLLEVQYFF (peptide B3) | potently inhibited the growth | inhibited the increase in expression | inhibited the morphological change | potently inhibit; also recorded: most inhibitory | –
4 | inhibited the binding | inhibited the binding | EVYKGVVTEYHDMVTE (peptide B2) | potently inhibited the growth | inhibited the increase in expression | inhibited the morphological change | potently inhibit | –
5 | inhibited the binding | inhibited the binding | MLSRKEALDFHVDHQS (peptide A1) | potently inhibited the growth | inhibited the increase in expression | inhibited the morphological change | potently inhibit | –
6 | inhibited the binding | inhibited the binding | DAGFEISAMQMFNMDRVNVE (peptide B1) | potently inhibited the growth | inhibited the increase in expression | inhibited the morphological change | potently inhibit | –
